# Test results from the supplement of paper PMC10307832.
# Key:
# Test in all cases: relative viability (nuclei count vs DMSO), 5 days (fraction); higher = more cells survive
# Masitinib + Alpelisib = compound: Cc1ccc(NC(=O)c2ccc(CN3CCN(C)CC3)cc2)cc1Nc1nc(-c2cccnc2)cs1 [Masitinib] + Cc1nc(NC(=O)N2CCC[C@H]2C(N)=O)sc1-c1ccnc(C(C)(C)C(F)(F)F)c1 [Alpelisib] (partner 2 µM)
# Method in brief: (§1)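 Relative viability divides the nuclei count in treated wells by that in vehicle wells. Lung cancer cell lines were seeded in 1536-well plates, dosed by pin tool the next day, and fixed and stained after 5 days in one step with final 0.05% Triton X-100, 1% formaldehyde and 1 ug/ml Hoechst. Dosing was a single drug or a fixed anchor-drug dose plus five library-drug doses (not always all listed) in √10 steps, and values are medians of duplicate plates imaged at 4×.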
# [1] = compound: CC1=CC(=CC=C1)NC2=NC(=CS2)C3=CC=NC=C3 + NC(=O)Nc1cc(-c2cccc(F)c2)sc1C(=O)N[C@H]1CCCNC1 [AZD7762] (partner 0.2 µM)
# Method in brief: as §1
# [2] = compound: CC1=CC(=CC=C1)NC2=NC(=CS2)C3=CC=NC=C3 + COc1cccc2cc(-c3nc([C@H]4CC[C@H](C(=O)O)CC4)n4ncnc(N)c34)[nH]c12 [OSI-027] (partner 0.5 µM)
# Method in brief: as §1
# [3] = compound: CC1=CC(=CC=C1)NC2=NC(=CS2)C3=CC=NC=C3 + Cc1cc(Nc2cc(N3CCN(C)CC3)nc(Sc3ccc(NC(=O)C4CC4)cc3)n2)n[nH]1 [Tozasertib] (partner 0.1 µM)
# Method in brief: as §1
Cell Line,relative viability (Masitinib + Alpelisib; first compound 0.01 µM),relative viability (Masitinib + Alpelisib; first compound 0.03162 µM),relative viability (Masitinib + Alpelisib; first compound 0.1 µM),relative viability (Masitinib + Alpelisib; first compound 0.3162 µM),relative viability (Masitinib + Alpelisib; first compound 1 µM),relative viability ([1]; first compound 0.253 µM),relative viability ([1]; first compound 0.8 µM),relative viability ([1]; first compound 2.53 µM),relative viability ([1]; first compound 8 µM),relative viability ([2]; first compound 0.08 µM),relative viability ([2]; first compound 0.253 µM),relative viability ([2]; first compound 0.8 µM),relative viability ([2]; first compound 2.53 µM),relative viability ([2]; first compound 8 µM),relative viability ([3]; first compound 0.253 µM),relative viability ([3]; first compound 0.8 µM),relative viability ([3]; first compound 8 µM),relative viability ([3]; first compound 0.08 µM),relative viability ([3]; first compound 2.53 µM),relative viability ([1]; first compound 0.08 µM)
LK-2,1.28,0.609,1.38,1.15,1.3,0.429,0.555,0.36,0.618,0.165,0.181,0.237,0.185,0.214,0.175,0.173,0.184,–,–,–
NCI-H2228,0.897,0.708,0.835,0.685,0.844,–,–,–,–,0.375,0.463,0.517,0.472,0.398,0.198,0.175,0.157,0.24,0.162,–
NCI-H322M,0.782,0.778,0.932,0.763,0.793,0.549,0.551,0.553,0.455,0.418,0.508,0.574,0.519,0.565,0.444,0.478,0.492,0.419,0.519,0.46
NCI-H1993,0.669,–,0.627,0.728,0.636,0.706,0.641,0.682,0.749,0.523,0.524,0.586,0.576,0.56,0.605,0.562,0.519,0.543,0.617,0.688
NCI-H2023,0.581,0.62,0.6,0.518,0.548,–,–,–,–,0.337,0.269,0.376,0.228,0.207,0.332,0.321,0.116,0.332,0.228,–
COR-L23,0.862,0.81,0.861,0.848,0.852,–,–,–,–,0.587,0.66,0.555,0.64,0.503,0.189,0.155,0.099,0.186,0.172,–
NCI-H1299,1.1,1.1,1.27,1.11,1.05,–,–,–,–,–,–,–,–,–,–,–,–,–,–,–
NCI-H661,0.748,0.577,0.623,0.384,0.47,–,–,–,–,0.621,0.653,0.687,0.7,0.578,0.367,0.353,0.333,0.33,0.341,–
COR-L 105,1,1.02,1.05,0.879,1.15,–,–,–,–,0.562,0.62,0.561,0.597,0.581,0.296,0.282,0.372,0.348,0.381,–
NCI-H2009,1.15,1.12,1.24,1.16,1.18,–,–,–,–,0.589,0.668,0.676,0.625,0.586,0.699,0.715,0.704,0.737,0.823,–
ChaGo-K-1,–,–,–,–,–,0.83,0.835,0.828,0.75,0.43,0.459,0.588,0.394,0.485,0.241,0.241,0.231,0.227,0.235,0.842
NCI-H1563,1.02,0.964,0.839,1.13,0.931,–,–,–,–,0.723,0.775,0.842,0.779,0.697,–,–,–,–,–,–
NCI-H520,0.914,–,0.966,0.826,1.02,–,–,–,–,0.259,0.252,0.302,0.193,0.251,0.458,0.481,0.458,0.372,0.514,–
NCI-H1703,0.226,0.255,0.228,0.171,0.197,0.127,0.14,0.148,0.112,–,–,–,–,–,–,–,–,–,–,0.121
NCI-H1648,–,–,–,–,–,0.568,0.676,0.469,0.469,0.259,0.277,0.276,0.258,0.255,0.315,0.46,0.294,0.387,0.384,0.662
NCI-H1792,0.69,0.203,0.61,0.65,0.698,0.529,0.628,0.755,0.524,0.541,–,0.613,0.443,0.401,–,–,–,–,–,0.459
NCI-H1650,–,–,–,–,–,–,–,–,–,0.619,0.508,0.625,0.472,0.227,0.543,0.461,0.269,0.531,0.363,–
A549,0.773,0.712,1.01,0.938,0.683,–,–,–,–,–,–,–,–,–,–,–,–,–,–,–
NCI-H522,–,–,–,–,–,0.822,0.803,0.848,0.852,0.71,0.649,0.737,0.735,0.775,0.54,0.59,0.643,0.539,0.504,0.681
NCI-H1623,–,–,–,–,–,–,–,–,–,0.444,0.359,0.391,0.405,0.384,0.403,0.377,0.363,0.393,0.385,–
SW 900,–,–,–,–,–,0.576,0.745,0.508,0.26,0.443,0.539,0.549,0.356,0.355,0.437,0.476,0.299,0.533,0.365,0.65
IA-LM,0.823,0.758,1.07,0.762,0.787,–,–,–,–,–,–,–,–,–,–,–,–,–,–,–
SK-MES-1,1.07,0.946,1.08,0.921,0.732,–,–,–,–,0.517,0.484,0.549,0.714,0.511,0.679,0.722,0.718,0.708,0.737,–
EBC-1,0.835,0.713,1.01,0.715,0.822,–,–,–,–,–,–,–,–,–,–,–,–,–,–,–
